Patent US5104814A, “Assay kit and methods for neuroleptic drugs” (Schering Corporation, priority 1990, dated 1992)

Assays:
D-1 receptor [1] = target: T1, D-1 receptor (Rattus norvegicus, UniProt P18901); test: Saturation binding of [N-methyl-^3 H] Compound in rat striatum; conditions: binding as a function of radioligand concentration, 25 min
T1 construct: Striatal tissue was excised, pooled, and homogenized; from tissue; host or cells: striatum of male Sprague-Dawley rats, homogenized and washed by centrifugation
Method: (§1) Male Sprague-Dawley rats (200 to 250 g) from Charles River Breeding Laboratories, Mass. were used to obtain brain tissue. The rats were decapitated, their brains removed and placed on ice. Striatal tissue was excised, pooled, and homogenized (Brinkman Polytron, 10 sec) in 100 volumes (v/v) of ice cold 50mM Tris-HCl buffer, pH 7.4 (at 25° C.). The homogenate was centrifuged at 20,000×g for 10 min. The resultant pellet was rehomogenized in Tris-HCl buffer and centrifuged again. The final pellet was resuspended in 50 mM Tris-HCl buffer pH 7.4 containing 120 mM NaCl, 5 mM KCL, 2 mM CaCl2, and 1 mM MgCl2.

rat striatal membranes = test: In vivo labeling of rat striatal membranes by [N-methyl-^3 H] Compound after subcutaneous injection
[2] = Recovery of radioactivity from polypropylene assay tubes (adsorption onto surfaces); type: physicochemical; conditions: polypropylene tubes used in these experiments
dopamine D-1 receptors = conditions: J. Pharmacol. Exp. Ther., 226: 462 (1983); cited from earlier work
D-1 receptor [3] = target: T1, D-1 receptor; test: Competition binding with [N-methyl-^3 H] Compound as radioligand in rat striatal tissue; conditions: rat striatum, radioligand 1.0 nM; read-out: KI, inhibition of binding of the labelled Compound
Method: as §1
To test the receptor specificity of [N-methyl-^3 H]

T1 sequence (P18901 whole entry): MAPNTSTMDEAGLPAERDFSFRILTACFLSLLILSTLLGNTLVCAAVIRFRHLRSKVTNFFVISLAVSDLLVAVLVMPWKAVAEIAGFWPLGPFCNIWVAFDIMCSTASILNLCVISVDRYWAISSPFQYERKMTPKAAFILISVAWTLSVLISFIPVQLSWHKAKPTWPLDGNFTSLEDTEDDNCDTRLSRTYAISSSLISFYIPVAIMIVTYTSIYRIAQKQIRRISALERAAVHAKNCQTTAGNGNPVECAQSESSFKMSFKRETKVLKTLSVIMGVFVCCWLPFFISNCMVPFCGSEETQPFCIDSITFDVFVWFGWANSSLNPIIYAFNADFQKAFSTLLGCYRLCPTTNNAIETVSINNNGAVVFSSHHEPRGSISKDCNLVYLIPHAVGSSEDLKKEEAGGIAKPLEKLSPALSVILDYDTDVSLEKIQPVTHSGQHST

With `[3H]C([3H])([3H])N1CCc2cc(Cl)c(O)cc2C2c3ccccc3CCC21` (stereo not drawn) [[N-methyl-^3 H] Compound] the “KD (disassociation constant)” value (D-1 receptor [1]) was 1.7 nM, the “time of optimal binding after subcutaneous injection” value (rat striatal membranes; subcutaneous, striatal membranes) was 1 h and the “recoverable radioactivity from the polypropylene tubes” value [2] was 97%.

In the case of `CN1CCc2cc(Cl)c(O)cc2[C@@H](c2ccccc2)C1` [R-(+)-8-chloro-2,3,4,5-tetrahydro-3-methyl-5-phenyl-1H-3-benzazepine-7-ol, reference compound], the “inhibition of striatal binding of [N-methyl-^3 H] Compound in vivo” value (rat striatal membranes; 1 umole of inhibitor) is listed as 90% and the “selectivity for dopamine D-1 receptors over D-2 receptors” value (dopamine D-1 receptors) is listed as 2500 fold.

Compound `CN1CCc2cc(Cl)c(O)cc2[C@H]2c3ccccc3CC[C@@H]21` [Compound, [-]trans 6,7,7a,8,9,13b-hexahydro-3-chloro-2-hydroxy-N-methyl-5H-benzo[d]naphtho[2,1-b]-azepine] has a Ki (D-1 receptor [3]) of 3.6 nM.
